According to PubChem BioAssay AID588835 (The Scripps Research Institute Molecular Screening Center, 2011):
The source made the active and inactive calls. No rule for the calls is given here.

Legend:
[1] = target: Prolyl endopeptidase (Mus musculus) (UniProt Q9QUR6); assay: in situ PREP and ABHD6 off-target inhibition, dose response, selectivity assay for PME-1 inhibitor project, cell-based, fluorescence, gel-based ABPP (AID 588835); conditions: in situ gel-based competitive ABPP, PREP, IC50, second panel column
Chain of Prolyl endopeptidase (Mus musculus) (Q9QUR6 whole entry, looked up): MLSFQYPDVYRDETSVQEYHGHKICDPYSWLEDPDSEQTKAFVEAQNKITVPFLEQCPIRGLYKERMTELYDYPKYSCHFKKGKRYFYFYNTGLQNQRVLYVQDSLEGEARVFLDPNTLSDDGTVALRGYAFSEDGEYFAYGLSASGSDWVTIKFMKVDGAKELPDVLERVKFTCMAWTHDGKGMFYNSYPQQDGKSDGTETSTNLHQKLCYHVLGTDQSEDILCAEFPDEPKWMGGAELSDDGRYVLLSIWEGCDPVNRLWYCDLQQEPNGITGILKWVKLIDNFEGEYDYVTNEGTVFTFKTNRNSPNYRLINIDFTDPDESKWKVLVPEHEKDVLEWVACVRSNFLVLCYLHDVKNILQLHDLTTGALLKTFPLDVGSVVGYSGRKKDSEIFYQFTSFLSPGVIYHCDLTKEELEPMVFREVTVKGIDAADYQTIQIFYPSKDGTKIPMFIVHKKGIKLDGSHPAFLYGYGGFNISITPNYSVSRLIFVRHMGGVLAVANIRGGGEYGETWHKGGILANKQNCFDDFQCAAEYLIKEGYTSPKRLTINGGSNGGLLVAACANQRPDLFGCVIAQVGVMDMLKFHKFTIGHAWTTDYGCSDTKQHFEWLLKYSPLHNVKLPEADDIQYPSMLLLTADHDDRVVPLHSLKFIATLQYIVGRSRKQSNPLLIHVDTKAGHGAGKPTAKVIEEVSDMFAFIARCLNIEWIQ

[2] = target: Monoacylglycerol lipase ABHD6 (Mus musculus) (UniProt Q8R2Y0); assay: as above; conditions: in situ gel-based competitive ABPP
Chain of Monoacylglycerol lipase ABHD6 (Mus musculus) (Q8R2Y0 whole entry, looked up): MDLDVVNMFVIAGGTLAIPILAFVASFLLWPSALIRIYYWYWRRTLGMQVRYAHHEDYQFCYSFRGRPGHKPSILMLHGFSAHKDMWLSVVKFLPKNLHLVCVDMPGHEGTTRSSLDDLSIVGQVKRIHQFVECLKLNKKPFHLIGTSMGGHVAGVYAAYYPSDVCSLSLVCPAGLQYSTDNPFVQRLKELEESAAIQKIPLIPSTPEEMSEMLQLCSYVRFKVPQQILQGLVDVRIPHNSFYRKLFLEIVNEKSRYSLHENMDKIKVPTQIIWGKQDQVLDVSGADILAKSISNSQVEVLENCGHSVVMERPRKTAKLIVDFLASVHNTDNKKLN

IC50 [1]: 2340 nM
IC50 [2]: inactive
Compound: CC[C@@]1(c2ccc(C)cc2)C(=O)N(C(=O)OC(C)C)N1C(=O)OC(C)C
